According to patent publication EP0931079B1, “SUBSTITUTED BENZOCYCLOHEPTAPYRIDINE DERIVATIVES USEFUL FOR INHIBITION OF FARNESYL PROTEIN TRANSFERASE” (SCHERING CORPORATION, priority 1996, dated 1998):

Assays:
[1] = biological target: T1, farnesyl protein transferase (Homo sapiens, UniProt P49354+P49356); assay: FPT IC50 (H-ras), inhibition of farnesyl protein transferase, in vitro enzyme assay; type: biochemical; details: range stated for the listed compounds as a group
Experimental: (§1) FPT IC50 (inhibition of farnesyl protein transferase, in vitro enzyme assay) and COS Cell IC50 (Cell-Based Assay) were determined following the assay procedures described in WO 95/10516, published April 20, 1995. GGPT IC50 (inhibition of geranylgeranyl protein transferase, in vitro enzyme assay), Cell Mat Assay, and anti-tumor activity (in vivo anti-tumor studies) could be determined by the assay procedures described in WO 95/10516. The disclosure of WO 95/10516 is incorporated herein by reference thereto.

COS Cell = COS Cell IC50 (Cell-Based Assay); details: range stated for the listed compounds as a group
Experimental: as §1

[2] = biological target: T1, farnesyl protein transferase; assay: FPT IC50 (K-ras), inhibition of farnesyl protein transferase, in vitro enzyme assay; type: biochemical; details: range stated for the listed compounds as a group
Experimental: as §1

Human tumor cells = assay: Soft Agar Assay (anchorage-independent growth, colony outgrowth); type: cell-based; details: colonies after 10-16 days at 37°C, range stated for the listed compounds as a group, read-out: Soft Agar FPT IC50
Experimental: Anchorage-independent growth is a characteristic of tumorigenic cell lines. Human tumor cells are suspended in growth medium containing 0.3% agarose and an indicated concentration of a famesyl transferase inhibitor. The solution is overlayed onto growth medium solidified with 0.6% agarose containing the same concentration of farnesyl transferase inhibitor as the top layer. After the top layer is solidified, plates are incubated for 10-16 days at 37°C under 5% CO2 to allow colony outgrowth. After incubation, the colonies are stained by overlaying the agar with a solution of MTT (3-[4,5-dimethyl-thiazol-2-yl]-2,5-diphenyltetrazolium bromide, Thiazolyl blue) (1 mg/mL in PBS). Colonies can be counted and the IC50's can be determined.

Row | IC50 [1] | IC50 [2] | IC50 (Human tumor cells) | SMILES | IC50 (COS Cell)
1 | 1.8 to 28 nM | 8.6 to 51.9 nM |  | O=C(CN1CCC(CC(=O)N2CCC([C@H]3c4ncc(Br)cc4CCc4cc(Cl)cc(Br)c43)CC2)CC1)NCc1ccccc1 [Compound 5.0] | 6 to 840 nM
2 | 1.8 to 28 nM | 8.6 to 51.9 nM | ≥ 60 nM | CCN(CC)C(=O)CN1CCC(CC(=O)N2CCC([C@H]3c4ncc(Br)cc4CCc4cc(Cl)cc(Br)c43)CC2)CC1 [Compound 4.0] | 6 to 840 nM
3 | 1.8 to 28 nM |  |  | CC(C)(C)OC(=O)CN1CCC(CC(=O)N2CCC([C@H]3c4ncc(Br)cc4CCc4cc(Cl)cc(Br)c43)CC2)CC1 [Compound 11.0] | 
4 | 1.8 to 28 nM | 8.6 to 51.9 nM | ≥ 60 nM | O=C(CN1CCC(CC(=O)N2CCC([C@H]3c4ncc(Br)cc4CCc4cc(Cl)cc(Br)c43)CC2)CC1)N[C@@H]1O[C@H](CO)[C@H](O)[C@H](O)[C@H]1O [Compound 6.0] | 6 to 840 nM
5 | 1.8 to 28 nM | 8.6 to 51.9 nM | ≥ 60 nM | O=C(CC1CCN(CC(=O)N2CCOCC2)CC1)N1CCC([C@H]2c3ncc(Br)cc3CCc3cc(Cl)cc(Br)c32)CC1 [Compound 7.0] | 6 to 840 nM
6 | 1.8 to 28 nM | 8.6 to 51.9 nM | ≥ 60 nM | NC(=O)CN1CCC(CC(=O)N2CCC([C@H]3c4ncc(Br)cc4CCc4cc(Cl)cc(Br)c43)CC2)CC1 [Compound 2.0] | 6 to 840 nM
7 | 1.8 to 28 nM | 8.6 to 51.9 nM | ≥ 60 nM | CC(C)(C)OC(=O)N1CCN(C(=O)CN2CCC(CC(=O)N3CCC([C@H]4c5ncc(Br)cc5CCc5cc(Cl)cc(Br)c54)CC3)CC2)CC1 [Compound 8.0] | 6 to 840 nM
8 | 1.8 to 28 nM |  | ≥ 60 nM | O=C(CC1CCN(CC(O)CO)CC1)N1CCC([C@H]2c3ncc(Br)cc3CCc3cc(Cl)cc(Br)c32)CC1 (stereo partly shown) [Compound 20.0] | 6 to 840 nM
9 | 1.8 to 28 nM | 8.6 to 51.9 nM | ≥ 60 nM | O=C(CC1CCN(CC(=O)N2CCNCC2)CC1)N1CCC([C@H]2c3ncc(Br)cc3CCc3cc(Cl)cc(Br)c32)CC1 [Compound 9.0] | 6 to 840 nM
10 | 1.8 to 28 nM | 8.6 to 51.9 nM | ≥ 60 nM | CON(C)C(=O)CN1CCC(CC(=O)N2CCC([C@H]3c4ncc(Br)cc4CCc4cc(Cl)cc(Br)c43)CC2)CC1 [Compound 3.0] | 6 to 840 nM

Row | SMILES | IC50 [1] | IC50 [2] | IC50 (Human tumor cells) | IC50 (COS Cell)
11 | O=C(CC1CCN(CC(=O)N2CCc3ccccc32)CC1)N1CCC([C@H]2c3ncc(Br)cc3CCc3cc(Cl)cc(Br)c32)CC1 [Compound 10.0] | 1.8 to 28 nM |  |  | 6 to 840 nM
